Common to all, as to assay: MTT cytotoxic/cytostatic activity, 48 hours exposure
Assay type in all cases: cell-based

The subject of assay [1] is human epidermoid carcinoma A431. As to conditions: for IC50: Homo sapiens, A-431. The protocol:
(§1) Three extracts derived from Pistacia lentiscus var. Chia were tested for their cytotoxic/cytostatic activity against three established cancer cell lines, i.e human mammary adenocarcinoma MCF-7, human colon adenocarcinoma HT-29, and human epidermoid carcinoma A431. A modification of the MTT method (Denizot and Lang, 1986, J Immunol Meth 89, 271) was used for the assessment of cytotoxicity. Briefly, exponentially growing cells were exposed to varying concentrations of the test compounds (or control medium) for 48 hours. Then, the medium was replaced with MTT [3-(4,5-dimethylthiazol-2-yl)-2,5-diphenyltetrazolium bromide] for a further 4 -hour incubation. Finally, the MTT-formazan was solubilized in isopropanol and the optical density was measured at a wavelength of 550 nm and a reference wavelength of 690 nm. A representative example of the semi-log inhibition curves obtained after exposure of A43 1 cells to the three Pistacia lentiscus extracts is illustrated in FIG. 2.
The inhibition curves were used to determine the IC50 of each extract, i.e. the concentration that produced a 50% reduction of the absorbance relative to the absorbance of the control culture. The average IC50s of each extract for each cell line, after at least three independent trials, are presented in the following table (5-fluorouracil a classical chemotherapeutic agent, was included as a positive control in the case of A431 epidermoid carcinoma cells):
We used the methodology of MTT (see Example 6), using A431 cells. The average IC50s of each compound, after at least three independent trials, are presented in the following table (the data of the previous report regarding A431 cells are included in the table for reasons of comparison):
The neutral extract of the essential oil and two of the isolated ingredients, i.e. isomasticadienolic acid, and oleanonic acid were tested for […] activity using the methodology of MTT (Example 7) and three established human cancer cell lines.

In assay [2] the test system is human colon adenocarcinoma HT-29. Particulars: two independent trials, essential oil dissolved in absolute ethanol (Table 11). The protocol: as §1
The inhibition curves were used to determine the IC50 of each extract, i.e. the concentration that produced a 50% reduction of the absorbance relative to the absorbance of the control culture. […]

Assay [3] concerns human lung carcinoma A549. Particulars: two independent trials, essential oil dissolved in absolute ethanol (Table 11).
[4] abbreviates: A431, at least three independent trials (Table 10), read-out: IC50, inhibition of A431 cancer cell proliferation.

≈ marks a conversion by molar mass, not a printed value. Where “and” joins values, the source holds several entries; their conditions need not be identical. Equal entries are not always repeated. Where two headings read alike, the source gives them in different places.

Regarding `O=c1[nH]cc(F)c(=O)[nH]1` [5-fluorouracil, reference compound], the IC50 in assay [1] (setting [4]) was 2.25 µg/mL and 17.3 µM; in assay [1] (Epidermoid carcinoma A431, 48 hours, at least three independent trials (Table 9), read-out: IC50, inhibition of cancer cell proliferation) it was 2.25 µg/mL (≈ 17.3 µM).
Regarding `C/C(=C/CC[C@H](C)[C@@H]1CC[C@]2(C)C3=C(CC[C@@]12C)[C@@]1(C)CC[C@H](O)C(C)(C)[C@@H]1CC3)C(=O)O` [Isomasticadienolic, isomasticadienolic acid], the “average IC50” value is reported as 95 (±5) μg/mL in assay [2]; 25 (±5) μg/mL in assay [1] (Epidermoid carcinoma A431, two independent trials, essential oil dissolved in absolute ethanol (Table 11)); 95 (±5) μg/mL in assay [3].
As for `CC1(C)C=C2[C@H]3CC[C@@H]4[C@@]5(C)CCC(=O)C(C)(C)[C@@H]5CC[C@@]4(C)[C@]3(C)CC[C@@]2(C(=O)O)CC1` [moronic, moronic acid], the IC50 in assay [1] (setting [4]) was 47.7 µg/mL and 105 µM.
On to `CC1(C)CC[C@]2(C(=O)O)CC[C@]3(C)C(=CC[C@@H]4[C@@]5(C)CCC(=O)C(C)(C)[C@@H]5CC[C@]43C)[C@@H]2C1` [oleanonic, oleanonic acid], for which the IC50 in assay [2] (Homo sapiens) is 105 µg/mL (≈ 231 µM); in assay [1] (setting [4]), 17.5 µg/mL and 38.3 µM; in assay [1] (Epidermoid carcinoma A431, two independent trials, essential oil dissolved in absolute ethanol (Table 11), read-out: average IC50) it was 45 µg/mL (≈ 99 µM); in assay [3] (Homo sapiens), 110 µg/mL (≈ 242 µM).
